The nature of series [1]: Pharmacokinetics of cromolyn sodium in plasma and lung after single intraperitoneal injection. It is filed as in vivo, male BALB/c mice. The settings on record: single IP injection, 10 mg/kg and 100 mg/kg. The method, then:
BALB/c male mice, weighing 22±2 g, were provided by BioLasco Taiwan. All animals were maintained in a well-controlled temperature (20-24° C.) and humidity (30%-70%) environment with 12 hours light/dark cycles. The mice were given free access to a standard lab diet [MFG (Oriental Yeast Co., Ltd., Japan)] and autoclaved tap water.
The solution was administered to the mice by IP injection at concentrations of 10 mg/kg and 100 mg/kg. The dosing volume for both dose strengths was 5 mL/kg.
The mice were sedated under general inhalant anesthesia (3% isoflurane) for blood collection by cardiac puncture. […]
The plasma samples were processed using acetonitrile (ACN) precipitation and analyzed by LC-MS/MS. […] The processed plasma samples were stored at −70° C. until receiving LC-MS/MS analysis, at which time peak areas were recorded, and the concentrations of the test substance in the unknown plasma samples were determined using the respective calibration curve. The reportable linear range of the assay was determined, along with the lower limit of quantitation (LLQ).
Each lung was homogenized in 1.5 mL cold phosphate-buffered saline (PBS) at pH 7.4 for 10 seconds on ice. The lung homogenate was centrifuged at 5,400×g for 15 minutes at 4° C., and the supernatant was subsequently processed using ACN precipitation and analyzed by LC-MS/MS. […]

The conditions of series [2]: available formulations of DSCG, not the compositions of the disclosure; cited from earlier work.

Consider `O=C([O-])c1cc(=O)c2c(OCC(O)COc3cccc4oc(C(=O)O)cc(=O)c34)cccc2o1.[Na+]` [cromolyn sodium, disodium 5,5′-(2-hydroxypropane-1,3-diyl)bis(oxy)bis(4-oxo-4H-chromene-2-carboxylate)], for which the “Exposure of cromolyn sodium in plasma and lungs” value in series [1] is reported as “Significant exposure”. The “Bioavailability of the available formulations” value in series [2] was “approximately 1%”.

These data come from patent publication US10583113B2, “Cromolyn compositions for treatment of pulmonary fibrosis” (Respivant Sciences, GmbH, priority 2016, dated 2020).
